Assay results taken from PubChem BioAssay (NCI).
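Results reflect a 48-hour exposure of cells in 96-well plates to compound at five concentrations. The concentration for 50% growth inhibition is given as GI50. At the TGI there is no net growth.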

Experiments:
Test in all cases: NCI anticancer screen, dose series, 48 h; in the data active = GI50 below about 0.43 µM; inactive = the rest
K-562 leukemia = system: K-562 leukemia
A498 renal = system: A498 renal
NCI/ADR-RES ovarian = system: NCI/ADR-RES ovarian
SR leukemia = system: SR leukemia
HT29 colon = system: HT29 colon
U251 CNS = system: U251 CNS
CCRF-CEM leukemia = system: CCRF-CEM leukemia
IGROV1 ovarian = system: IGROV1 ovarian
SK-MEL-2 melanoma = system: SK-MEL-2 melanoma
M14 melanoma = system: M14 melanoma
RXF 393 renal = system: RXF 393 renal
SK-MEL-28 melanoma = system: SK-MEL-28 melanoma
PC-3 prostate = system: PC-3 prostate
NCI-H23 lung = system: NCI-H23 lung
CAKI-1 renal = system: CAKI-1 renal
UACC-62 melanoma = system: UACC-62 melanoma
A549 NSCLC = system: A549 NSCLC
SF-295 CNS = system: SF-295 CNS
SNB-75 CNS = system: SNB-75 CNS
SK-OV-3 ovarian = system: SK-OV-3 ovarian
SN12C renal = system: SN12C renal
SF-268 CNS = system: SF-268 CNS
MDA-MB-231 breast = system: MDA-MB-231 breast
NCI-H460 lung = system: NCI-H460 lung
MDA-MB-435 = system: MDA-MB-435
BT-549 breast = system: BT-549 breast
NCI-H522 lung = system: NCI-H522 lung
SF-539 CNS = system: SF-539 CNS
HOP-92 NSCLC = system: HOP-92 NSCLC
HOP-62 NSCLC = system: HOP-62 NSCLC
LOX IMVI melanoma = system: LOX IMVI melanoma
UACC-257 melanoma = system: UACC-257 melanoma
ACHN renal = system: ACHN renal
EKVX NSCLC = system: EKVX NSCLC
HCT-116 colon = system: HCT-116 colon
SK-MEL-5 melanoma = system: SK-MEL-5 melanoma
MCF7 breast = system: MCF7 breast
OVCAR-4 ovarian = system: OVCAR-4 ovarian
HCT-15 colon = system: HCT-15 colon
OVCAR-5 ovarian = system: OVCAR-5 ovarian
MALME-3M melanoma = system: MALME-3M melanoma
786-0 renal = system: 786-0 renal
RPMI-8226 leukemia = system: RPMI-8226 leukemia
KM12 colon = system: KM12 colon
HS 578T breast = system: HS 578T breast
NCI-H226 lung = system: NCI-H226 lung
T-47D breast = system: T-47D breast
HCC-2998 colon = system: HCC-2998 colon
SNB-19 CNS = system: SNB-19 CNS
MOLT-4 leukemia = system: MOLT-4 leukemia
COLO 205 colon = system: COLO 205 colon
SW-620 colon = system: SW-620 colon
DU-145 prostate = system: DU-145 prostate
HL-60(TB) leukemia = system: HL-60(TB) leukemia
OVCAR-8 ovarian = system: OVCAR-8 ovarian
OVCAR-3 ovarian = system: OVCAR-3 ovarian
TK-10 renal = system: TK-10 renal

C#CCSc1nnnn1-c1ccc(Br)c(C)c1
> 100 µM: TGI (K-562 leukemia) | TGI (SR leukemia) | TGI (U251 CNS) | TGI (CCRF-CEM leukemia) | TGI (M14 melanoma) | TGI (RXF 393 renal) | TGI (SK-MEL-28 melanoma) | TGI (PC-3 prostate) | TGI (A549 NSCLC) | TGI (SF-295 CNS) | TGI (SNB-75 CNS) | TGI (SK-OV-3 ovarian) | TGI (SN12C renal) | TGI (SF-268 CNS) | TGI (MDA-MB-231 breast) | TGI (NCI-H460 lung) | TGI (BT-549 breast) | TGI (HOP-62 NSCLC) | TGI (LOX IMVI melanoma) | TGI (UACC-257 melanoma) | TGI (ACHN renal) | TGI (HCT-116 colon) | TGI (MCF7 breast) | TGI (OVCAR-4 ovarian) | TGI (HCT-15 colon) | TGI (OVCAR-5 ovarian) | TGI (786-0 renal) | TGI (KM12 colon) | TGI (NCI-H226 lung) | TGI (T-47D breast) | TGI (HCC-2998 colon) | TGI (SNB-19 CNS) | TGI (MOLT-4 leukemia) | TGI (OVCAR-8 ovarian) | TGI (TK-10 renal)
91.2 µM: TGI (UACC-62 melanoma)
52.1 µM: TGI (SW-620 colon)
97.3 µM: TGI (EKVX NSCLC)
88.6 µM: TGI (NCI-H23 lung)
95.8 µM: TGI (OVCAR-3 ovarian)
74 µM: TGI (RPMI-8226 leukemia)
17.6 µM: TGI (CAKI-1 renal)
96 µM: TGI (HT29 colon)
33.9 µM: TGI (SK-MEL-5 melanoma)
81.1 µM: TGI (A498 renal)
55.8 µM: TGI (MDA-MB-435)
74.5 µM: TGI (HOP-92 NSCLC)
84.3 µM: TGI (COLO 205 colon)
79.4 µM: TGI (NCI-H522 lung)
36.5 µM: TGI (SF-539 CNS)
72.7 µM: TGI (NCI/ADR-RES ovarian)
57 µM: TGI (SK-MEL-2 melanoma)
inactive: GI50 (K-562 leukemia) 27.6 µM | GI50 (A498 renal) 18.9 µM | GI50 (NCI/ADR-RES ovarian) 17.4 µM | GI50 (SR leukemia) 19.8 µM | GI50 (HT29 colon) 30.3 µM | GI50 (U251 CNS) 12 µM | GI50 (CCRF-CEM leukemia) 29.5 µM | GI50 (IGROV1 ovarian) 2.77 µM | GI50 (SK-MEL-2 melanoma) 21.6 µM | GI50 (M14 melanoma) 31.1 µM | GI50 (RXF 393 renal) 27.3 µM | GI50 (SK-MEL-28 melanoma) 50.1 µM | GI50 (PC-3 prostate) 34.7 µM | GI50 (NCI-H23 lung) 21.5 µM | GI50 (CAKI-1 renal) 2.82 µM | GI50 (UACC-62 melanoma) 18.3 µM | GI50 (A549 NSCLC) 38 µM | GI50 (SF-295 CNS) 29.5 µM | GI50 (SNB-75 CNS) 25.7 µM | GI50 (SK-OV-3 ovarian) 30 µM | GI50 (SN12C renal) 19.1 µM | GI50 (SF-268 CNS) 24.6 µM | GI50 (MDA-MB-231 breast) 35.8 µM | GI50 (NCI-H460 lung) 31.5 µM | GI50 (MDA-MB-435) 17.9 µM | GI50 (BT-549 breast) 48.7 µM | GI50 (NCI-H522 lung) 19.1 µM | GI50 (SF-539 CNS) 18.1 µM | GI50 (HOP-92 NSCLC) 14.5 µM | GI50 (HOP-62 NSCLC) 64.3 µM | GI50 (LOX IMVI melanoma) 20.9 µM | GI50 (UACC-257 melanoma) 35.2 µM | GI50 (ACHN renal) 33.1 µM | GI50 (EKVX NSCLC) 4.86 µM | GI50 (HCT-116 colon) 29.3 µM | GI50 (SK-MEL-5 melanoma) 16.5 µM | GI50 (MCF7 breast) 28.4 µM | GI50 (OVCAR-4 ovarian) 31.1 µM | GI50 (HCT-15 colon) 29 µM | GI50 (OVCAR-5 ovarian) 69.4 µM | GI50 (MALME-3M melanoma) 27.2 µM | GI50 (786-0 renal) 54.9 µM | GI50 (RPMI-8226 leukemia) 22.5 µM | GI50 (KM12 colon) 35 µM | GI50 (HS 578T breast) 2.86 µM | GI50 (NCI-H226 lung) 26.4 µM | GI50 (T-47D breast) 21 µM | GI50 (HCC-2998 colon) 33.8 µM | GI50 (SNB-19 CNS) 74 µM | GI50 (MOLT-4 leukemia) 23.3 µM | GI50 (COLO 205 colon) 27.2 µM | GI50 (SW-620 colon) 19.1 µM | GI50 (DU-145 prostate) 16.6 µM | GI50 (HL-60(TB) leukemia) 27.3 µM | GI50 (OVCAR-8 ovarian) 20.3 µM | GI50 (OVCAR-3 ovarian) 23.2 µM | GI50 (TK-10 renal) 35.4 µM
26.9 µM: TGI (HS 578T breast)
47.5 µM: TGI (DU-145 prostate)
71.8 µM: TGI (MALME-3M melanoma)
87 µM: TGI (HL-60(TB) leukemia)
9.16 µM: TGI (IGROV1 ovarian)
